# Key:
# [1] = test system: methicillin-resistant Staphylococcus aureus (MRSA); assay: agar dilution method, inhibitory effect on MRSA; format: cell-based; details: for MIC50: Staphylococcus aureus, read-out: Minimum inhibitory concentration (MIC50, μg/ml) MRSA
# Source text: (§1) In order to determine the antibacterial activity of these new oxazolidinone-based compounds, an agar dilution method was used to test the inhibitory effect on methicillin-resistant Staphylococcus aureus (MRSA) and vancomycin-resistant Enterococcus (VRE). The bacteria inhibition effect was expressed as minimum inhibitory concentration (MIC50, μg/ml) The test results are shown in the following table.
# [2] = test system: vancomycin-resistant Enterococcus (VRE); assay: agar dilution method, inhibitory effect on VRE; format: cell-based; details: for MIC50: Enterococcus, read-out: Minimum inhibitory concentration (MIC50, μg/ml) VRE
# Source text: as §1
Structure (SMILES),MIC50 [1],MIC50 [2],"Minimum inhibitory concentration (MIC50, μg/ml) MRSA [1]","Minimum inhibitory concentration (MIC50, μg/ml) VRE [2]"
"CCCn1nnc(-c2ccc(-c3ccc(N4C[C@H](C(C)O)OC4=O)cc3F)cn2)n1.O=P(O)(O)O (stereo partly drawn) [compound 105, (R)-3-(3-fluoro-4-(6-(2-propyl-2H-tetrazol-5-yl)pyridin-3-yl)phenyl)-5-(1-hydroxyethyl) oxazolidin-2-one phosphate]",1.4 µg/mL,1.3 µg/mL,,
"CCCn1nnc(-c2ccc(-c3ccc(N4C[C@@H](C(C)O)OC4=O)cc3F)cn2)n1.O=P(O)(O)O (stereo partly drawn) [compound 106, (S)-3-(3-fluoro-4-(6-(2-propyl-2H-tetrazol-5-yl)pyridin-3-yl)phenyl)-5-(1-hydroxyethyl) oxazolidin-2-one phosphate]",1 µg/mL,1.2 µg/mL,,
"CCCn1nnc(-c2ccc(-c3ccc(N4C[C@H](C(O)CC)OC4=O)cc3F)cn2)n1.O=P(O)(O)O (stereo partly drawn) [compound 107, (R)-3-(3-fluoro-4-(6-(2-propyl-2H-tetrazol-5-yl)pyridin-3-yl)phenyl)-5-(1-hydroxypropyl) oxazolidin-2-one phosphate]",0.8 µg/mL,0.8 µg/mL,,
"CCCn1nnc(-c2ccc(-c3ccc(N4C[C@@H](C(O)CC)OC4=O)cc3F)cn2)n1.O=P(O)(O)O (stereo partly drawn) [compound 108, (S)-3-(3-fluoro-4-(6-(2-propyl-2H-tetrazol-5-yl)pyridin-3-yl)phenyl)-5-(1-hydroxypropyl) oxazolidin-2-one phosphate]",0.5 µg/mL,0.4 µg/mL,,
"O=C1O[C@@H](C(O)C(F)(F)F)CN1c1ccc(-c2ccc(-c3nnn(C4CC4)n3)nc2)c(F)c1.O=P(O)(O)O (stereo partly drawn) [compound 111, (R)-3-(3-fluoro-4-(6-(2-cyclopropyl-2H-tetrazol-5-yl)pyridin-3-yl)phenyl)-5-(1-hydroxy-2-trifluoroethyl) oxazolidin-2-one phosphate]",,,0.3 µg/mL,0.3 µg/mL
"O=C1O[C@H](C(OP(=O)(O)O)C(F)(F)F)CN1c1ccc(-c2ccc(-c3nnn(C4CC4)n3)nc2)c(F)c1 (stereo partly drawn) [compound 112, (S)-3-(3-fluoro-4-(6-(2-cyclopropyl-2H-tetrazol-5-yl)pyridin-3-yl)phenyl)-5-(1-hydroxy-2-trifluoroethyl) oxazolidin-2-one phosphate]",,,0.9 µg/mL,0.9 µg/mL
"CCC(OP(=O)(O)O)[C@H]1CN(c2ccc(-c3ccc(-c4nnn(C5CC5)n4)nc3)c(F)c2)C(=O)O1 (stereo partly drawn) [compound 115, (R)-3-(3-fluoro-4-(6-(2-cyclopropyl-2H-tetrazol-5-yl)pyridin-3-yl)phenyl)-5-(1-hydroxypropyl)) oxazolidin-2-one phosphate]",,,0.5 µg/mL,0.5 µg/mL

# Second part, the compound after the results:
MIC50 [1],MIC50 [2],"Minimum inhibitory concentration (MIC50, μg/ml) MRSA [1]","Minimum inhibitory concentration (MIC50, μg/ml) VRE [2]",Structure (SMILES)
0.2 µg/mL,0.2 µg/mL,,,"CCCn1nnc(-c2ccc(-c3ccc(N4C[C@H](C(O)F)OC4=O)cc3F)cn2)n1.O=P(O)(O)O (stereo partly drawn) [compound 109, (R)-3-(3-fluoro-4-(6-(2-propyl-2H-tetrazol-5-yl)pyridin-3-yl)phenyl)-5-(hydroxyfluoromethyl) oxazolidin-2-one phosphate]"
0.2 µg/mL,0.2 µg/mL,,,"CCCn1nnc(-c2ccc(-c3ccc(N4C[C@@H](C(O)F)OC4=O)cc3F)cn2)n1.O=P(O)(O)O (stereo partly drawn) [compound 110, (S)-3-(3-fluoro-4-(6-(2-propyl-2H-tetrazol-5-yl)pyridin-3-yl)phenyl)-5-(hydroxyfluoromethyl) oxazolidin-2-one phosphate]"
0.2 µg/mL,0.2 µg/mL,,,"CC(O)[C@H]1CN(c2ccc(-c3ccc(-c4nnn(C5CC5)n4)nc3)c(F)c2)C(=O)O1.O=P(O)(O)O (stereo partly drawn) [compound 113, (R)-3-(3-fluoro-4-(6-(2-cyclopropyl-2H-tetrazol-5-yl)pyridin-3-yl)phenyl)-5-(1-hydroxyethyl) oxazolidin-2-one phosphate]"
0.3 µg/mL,0.3 µg/mL,,,"CC(O)[C@@H]1CN(c2ccc(-c3ccc(-c4nnn(C5CC5)n4)nc3)c(F)c2)C(=O)O1.O=P(O)(O)O (stereo partly drawn) [compound 114, (S)-3-(3-fluoro-4-(6-(2-cyclopropyl-2H-tetrazol-5-yl)pyridin-3-yl)phenyl)-5-(1-hydroxyethyl) oxazolidin-2-one phosphate]"

# Reference: patent US12173020B2, “New-type oxazolidinone compounds and preparation method therefor” (priority 2019, dated 2024)
